Assay results: patent publication US20070087376A1, “Splice variants of pre-mRNA transcripts as biomarkers in idiopathic neurodegenerative diseases” (priority 2004, published 2007)

Assays:
[1] = tested on: FosB splice variants (FosB and ΔFosB mRNA); assay: FosB splice variant mRNA levels in blood of MPTP-treated (Parkinsonian) mice, RT-PCR; format: in vivo, mouse; settings: vs vehicle
Description: (§1) Mice were then euthanized either at 3 days or 3 weeks after treatment. Two time periods were selected in order to characterizing splicing events in the blood over time. Controls for the acute group include mice treated with saline and, for the chronic experiments, mice treated with probenecid or saline.
(§2) Blood specimens for assaying RNA from the mice described in Example 1 above were obtained as follows. Mice were sacrificed by cervical dislocation and the heart lacerated to release the blood. Approximately 50 μl of 0.05 M EDTA, pH 8.0 was added to the chest cavity to prevent the blood from coagulating. Blood was collected in a sterile 1 ml syringe that was initially rinsed in 0.50 M EDTA pH 8.0.
(§3) RNA from blood samples obtained as described in Example 2 was separated on a 1.8% agarose gel and stained with 5 μl of ethidium bromide (10 mg/ml stock) diluted into 10 ml of a TAE buffer (pH 8.5 40 mM Tris.acetate, 2 mM Na2EDTA.2H2O. After staining, the RNA was visualized on a UV light box and the 18S RNA band was quantified. The image was captured using a Kodak EDAS290 system (Kodak, Rochester, N.Y.) and the Kodak 1D Image Analysis software (Kodak, Rochester, N.Y.) was used to quantify. Other similar cameras and analysis softwares will also work. […]

[2] = tested on: RGS9 splice variants (RGS9-1 and RGS9-2 mRNA); assay: RGS9 splice variant mRNA levels in blood of MPTP-treated mice, RT-PCR; format: in vivo, mouse
Description: as §1, §2, §3

[3] = tested on: AChE splice variants (AChE-R and AChE-S mRNA); assay: AChE splice variant mRNA levels in blood of MPTP-treated mice, RT-PCR; format: in vivo, mouse
Description: as §1, §2
(§4) RNA from blood samples obtained as described in Example 2 was separated on a 1.8% agarose gel and stained with 5 μl of ethidium bromide (10 mg/ml stock) diluted into 10 ml of a TAE buffer (pH 8.5 40 mM Tris.acetate, 2 mM Na2EDTA.2H2O. After staining, the RNA was visualized on a UV light box and the 18S RNA band was quantified. The image was captured using a Kodak EDAS290 system (Kodak, Rochester, N.Y.) and the Kodak 1D Image Analysis software (Kodak, Rochester, N.Y.) was used to quantify. Other similar cameras and analysis softwares will also work.
(§5) Splice variant mRNA was assayed using reverse transcriptase polymerase chain reactions (RT-PCR) as described in U.S. patent application Ser. No.: 11/215,842. PCR conditions for amplification of FosB, RGS9, AchE, Ania6 and NDUFS4 are the same as disclosed in U.S. patent application Ser. No.: 11/215,842 except different kits were used for FosB and RGS9 compared to the other 3 transcripts.
• 1. 95° C. 8 minutes • 2. 95° C. 30 seconds • 3. 57° C. 30 seconds • 4. 72° C. 30 seconds • 5. Repeat from step 2 35 times • 6. 72° C. 10 minutes RGS9 (SYBR green, Applied Biosystems, Foster City, Calif.) • 1. 95° C. 8 minutes • 2. 95° C. 30 seconds • 3. 54° C. 30 seconds • 4. 72° C. 30 seconds • 5. Repeat from step 2 35 times • 6. 72° C. 10 minutes AChE (go Taq Green, Promega, Madison, Wis.) • 1. 95° C. 5 minutes • 2. 95° C. 30 seconds • 3. 61° C. 30 seconds • 4. 72° C. 30 seconds • 5. Repeat from step 2 30 times • 6. 72° C. 5 minutes NDUFS4 (go Taq Green, Promega, Madison, Wis.) • 1. 95° C. 5 minutes • 2. 95° C. 30 seconds • 3. 64° C. 30 seconds • 4. 72° C. 30 seconds • 5. Repeat from step 2 30 times • 6. 72° C. 5 minutes Ania (go Taq Green, Promega, Madison, Wis. • 1. 95° C. 5 minutes • 2. 95° C. 30 seconds • 3. 57° C. 30 seconds • 4. 72° C. 30 seconds • 5. Repeat from step 2 35 times • 6. 72° C. 5 minutes Primers used in the PCR Assays: […]
We investigated whether the amount of the splice variants of acetylcholinesterase (AChE) changed after MPTP toxin treatment. AChE hydrolyzes acetylcholine (ACh) and thereby functions to terminate Ach-mediated neurotransmission. In many neuropathologies, the characteristics of AChE are modified in the central nervous system. We looked at the AChE-S and ACHE-R splice variants. The AChE-S mRNA produces the canonical synaptic tetrameric form of the enzyme. AChE-S is formed by skipping exon 5 such that the final mRNA is composed of exons 1-4 and exon 6 (FIG. 5). The protein produced from this transcript has a cysteine-containing carboxyl-terminus that allows for the formation of the tetramer. AChE-R, produces a read-through transcript in which a downstream splice donor is spliced to the intron 4 3′ splice site such that exon 5 is included in the mRNA (FIG. 6). This produces a protein with a different carboxyl-terminus than the synaptic form. […]

[4] = tested on: Ania6 splice variants (Ania6 and Ania6a mRNA); assay: Ania6 splice variant mRNA levels in blood of MPTP-treated mice, RT-PCR; format: in vivo, mouse; settings: chronic MPTP treatment
Description: as §1, §2, §3

[5] = tested on: NDUFS4 splice variants (NDUFS4 and NDUFS4-SV3 mRNA); assay: NDUFS4 splice variant mRNA levels in MPTP-treated mice, RT-PCR; format: in vivo, mouse; settings: chronic MPTP treatment
Description: as §1, §2, §4, §5
• 1. 95° C. 8 minutes • 2. 95° C. 30 seconds • 3. 57° C. 30 seconds • 4. 72° C. 30 seconds • 5. Repeat from step 2 35 times • 6. 72° C. 10 minutes RGS9 (SYBR green, Applied Biosystems, Foster City, Calif.) • 1. 95° C. 8 minutes • 2. 95° C. 30 seconds • 3. 54° C. 30 seconds • 4. 72° C. 30 seconds • 5. Repeat from step 2 35 times • 6. 72° C. 10 minutes AChE (go Taq Green, Promega, Madison, Wis.) • 1. 95° C. 5 minutes • 2. 95° C. 30 seconds • 3. 61° C. 30 seconds • 4. 72° C. […]

[6] = tested on: transcripts that have splice variants; settings: mptp study, cited from earlier work
[7] = chronic MPTP treatment, 3 days and 3 weeks after

In the case of `CN1CC=C(c2ccccc2)CC1` [MPTP, 1-methyl-4-phenyl-1,2,3,6-tetrahydropyridine], the “FosB mRNA/18S RNA” value ([1]; acute MPTP treatment (20 mg/kg, 4 times, every 2 hours), euthanized 3 days later) was “decreases”, the “ΔFosB mRNA/18S RNA” value ([1]; chronic MPTP (25 mg/kg s.c.) and probenecid, twice each week for 5 weeks) was “decreases” and the “RGS9-2 mRNA/18S RNA” value ([2]; acute MPTP treatment) was “decreases”. For the same molecule, the “RGS9-2 mRNA/RGS9-1” value [2, 7] was “decreases after chronic MPTP treatment and remains lower for 3 weeks”, the “AChE-R mRNA/18S RNA” value ([3]; acute MPTP treatment) was “increases” and the “AChE-R mRNA/AChE-S mRNA” value ([3]; acute MPTP treatment) was “increases”. For the same molecule, the “AChE-R mRNA/AChE-S mRNA” value ([3]; chronic MPTP treatment) was “decreases”, the “AChE-S mRNA/18S RNA” value ([3]; chronic MPTP treatment) was “increases” and the “AChE-R mRNA/18S RNA” value [3, 7] was “decreases and remains lower for 3 weeks”. For the same molecule, the “Ania6a mRNA/18S RNA” value [4] was “increases”, the “Ania6 mRNA/18S RNA” value ([4]; 3 days and 3 weeks after) was “decreases after chronic MPTP treatment and remains lower for 3 weeks” and the “NDUFS4 mRNA/18S RNA” value [5] was “decreases”. The “NDUFS4-SV3 mRNA/18S RNA” value ([5]; 3 days and 3 weeks after) was “decreases after chronic MPTP treatment and remains lower for 3 weeks”, the “NDUFS4-SV3 mRNA/NDUFS4 mRNA” value ([5]; 3 days and 3 weeks after) was “decreases after chronic MPTP treatment and remains lower for 3 weeks” and the “Change of BAX M, isoform-a transcript” value ([6]; function Apoptosis) was “Up”. The “Change of Cyclin B2 transcript” value ([6]; function Cell cycle) was “Down”, the “Change of Alpha-synuclein transcript” value ([6]; function PD-associated) was “Up” and the “Change of Ach N receptor transcript” value ([6]; function Receptors) was “Up”. The “Change of IL-1 recept II transcript” value ([6]; function Receptors) was “Up”, the “Change of IL-2 rp-G transcript” value ([6]; function Receptors) was “Up” and the “Change of IL-10 transcript” value ([6]; function Receptors) was “Up”. The “Change of Gtase transcript” value ([6]; function Stress) was “Down”.
